Values joined by “and” are separate entries in the source; they are usually repeats but may differ in a detail not shown here. Equal entries are not always repeated. Inconclusive results and toxic doses are left out. No stated cut-off is given here; in the data, active means T/C of 150% or more; inactive means T/C below 125%.
Tested on: L1210 leukemia ip in BDF1 mice, survival T/C
Experiment: NCI In Vivo Anticancer Drug Screen. Data for tumor model L1210 Leukemia (intraperitoneal) in B6D2F1 (BDF1) mice
Settings: endpoint: mean survival time, higher = longer survival
Summary of the method: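 In this screen, tumor-bearing mice given compound are compared to those given vehicle, and their survival values are reported as a treated-to-control quotient.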

[1] = dose: 100.0 mg/kg/injection, schedule: Q01DX001 (ip), vehicle: saline
[2] = dose: 200.0 mg/kg/injection, schedule: Q01DX001 (ip), vehicle: saline
[3] = dose: 400.0 mg/kg/injection, schedule: Q01DX001 (ip), vehicle: saline
[4] = dose: 100.0 mg/kg/injection, schedule: Q01DX001 (ip), vehicle: Klucel (hydroxypropylcellulose) (HPC)
[5] = dose: 100.0 mg/kg/injection, schedule: Q04DX002 (ip), vehicle: Klucel (hydroxypropylcellulose) (HPC)
[6] = dose: 200.0 mg/kg/injection, schedule: Q04DX002 (ip), vehicle: Klucel (hydroxypropylcellulose) (HPC)
[7] = dose: 400.0 mg/kg/injection, schedule: Q04DX002 (ip), vehicle: Klucel (hydroxypropylcellulose) (HPC)
[8] = dose: 100.0 mg/kg/injection, schedule: Q01DX009 (ip), vehicle: Klucel (hydroxypropylcellulose) (HPC)
[9] = dose: 200.0 mg/kg/injection, schedule: Q01DX009 (ip), vehicle: Klucel (hydroxypropylcellulose) (HPC)
[10] = dose: 400.0 mg/kg/injection, schedule: Q01DX009 (ip), vehicle: Klucel (hydroxypropylcellulose) (HPC)
[11] = dose: 100.0 mg/kg/injection, schedule: Q04DX002 (ip), vehicle: saline with Tween-80
[12] = dose: 200.0 mg/kg/injection, schedule: Q04DX002 (ip), vehicle: saline with Tween-80
[13] = dose: 100.0 mg/kg/injection, schedule: Q04DX003 (ip), vehicle: saline with Tween-80
[14] = dose: 200.0 mg/kg/injection, schedule: Q04DX003 (ip), vehicle: saline with Tween-80
[15] = dose: 400.0 mg/kg/injection, schedule: Q04DX003 (ip), vehicle: saline with Tween-80
[16] = dose: 50.0 mg/kg/injection, schedule: Q01DX001 (ip), vehicle: carboxymethylcellulose (CMC)
[17] = dose: 100.0 mg/kg/injection, schedule: Q01DX001 (ip), vehicle: carboxymethylcellulose (CMC)
[18] = dose: 200.0 mg/kg/injection, schedule: Q01DX001 (ip), vehicle: carboxymethylcellulose (CMC)
[19] = dose: 400.0 mg/kg/injection, schedule: Q01DX001 (ip), vehicle: carboxymethylcellulose (CMC)

Measured: T/C

Cc1c2ccncc2cc2c3ccccc3n(CC3CO3)c12 (configuration not stated)
inactive: dose: 37.5 mg/kg/injection, schedule: Q01DX009 (ip), vehicle: Klucel (hydroxypropylcellulose) (HPC) 96 % of control | dose: 37.5 mg/kg/injection, schedule: Q04DX003 (ip), vehicle: Klucel (hydroxypropylcellulose) (HPC) 104 % of control | dose: 75.0 mg/kg/injection, schedule: Q01DX009 (ip), vehicle: Klucel (hydroxypropylcellulose) (HPC) 96 % of control | dose: 75.0 mg/kg/injection, schedule: Q04DX003 (ip), vehicle: Klucel (hydroxypropylcellulose) (HPC) 106 % of control and 119 % of control | dose: 150.0 mg/kg/injection, schedule: Q01DX009 (ip), vehicle: Klucel (hydroxypropylcellulose) (HPC) 100 % of control | dose: 150.0 mg/kg/injection, schedule: Q04DX003 (ip), vehicle: Klucel (hydroxypropylcellulose) (HPC) 113 % of control | dose: 300.0 mg/kg/injection, schedule: Q01DX009 (ip), vehicle: Klucel (hydroxypropylcellulose) (HPC) 102 % of control

CCOC(Nc1cc(Cl)ccc1Cl)C(=O)c1ccccc1 (configuration not stated)
inactive: [1] 97 % of control | [2] 100 % of control | [3] 96 % of control

CSc1nc2nc[nH]c(=O)c2cc1C#N
inactive: [4] 91 % of control | dose: 200.0 mg/kg/injection, schedule: Q01DX001 (ip), vehicle: Klucel (hydroxypropylcellulose) (HPC) 96 % of control | dose: 400.0 mg/kg/injection, schedule: Q01DX001 (ip), vehicle: Klucel (hydroxypropylcellulose) (HPC) 106 % of control

CC(=O)c1ccc(CCCC2CCCC2)cc1
inactive: [5] 88 % of control | [6] 91 % of control | [7] 91 % of control

CCCCCCCCC(=O)N1CC(C)OC(C)C1 (configuration not stated)
inactive: [8] 120 % of control | dose: 100.0 mg/kg/injection, schedule: Q04DX003 (ip), vehicle: other 118 % of control | [9] 87 % of control | dose: 200.0 mg/kg/injection, schedule: Q04DX003 (ip), vehicle: other 109 % of control | [10] 94 % of control | dose: 400.0 mg/kg/injection, schedule: Q04DX003 (ip), vehicle: other 104 % of control

CCCN(CCC)C(=S)CC
inactive: [11] 94 % of control | [12] 98 % of control

COC(=O)c1cc(C(C)=O)nc2ccccc12
inactive: [13] 94 % of control | [14] 99 % of control | [15] 90 % of control

O=CC(CO)CC(C=O)n1cnc2c(=O)[nH]cnc21 (configuration not stated)
inactive: [1] 114 % of control

c1cc2c(cc1CCc1ccc3c(c1)OCO3)OCO2
inactive: [5] 96 % of control | [6] 86 % of control | [7] 104 % of control

Nc1ncnc(N)c1NC(=O)c1ccc([N+](=O)[O-])cc1
inactive: dose: 25.0 mg/kg/injection, schedule: Q01DX001 (ip), vehicle: Klucel (hydroxypropylcellulose) (HPC) 93 % of control | dose: 50.0 mg/kg/injection, schedule: Q01DX001 (ip), vehicle: Klucel (hydroxypropylcellulose) (HPC) 89 % of control | [4] 102 % of control

N[n+]1ccccc1
inactive: [11] 102 % of control | [12] 102 % of control | dose: 400.0 mg/kg/injection, schedule: Q04DX002 (ip), vehicle: saline with Tween-80 98 % of control

CCCCC(=O)N/N=C\c1ccc2c(c1)OCO2
inactive: [1] 94 % of control | [2] 105 % of control | [3] 91 % of control

Cc1nc(NCc2ccccc2)c2cc[nH]c2n1
inactive: dose: 1.56 mg/kg/injection, schedule: Q01DX009 (ip), vehicle: Klucel (hydroxypropylcellulose) (HPC) 104 % of control and 111 % of control | dose: 3.12 mg/kg/injection, schedule: Q01DX009 (ip), vehicle: Klucel (hydroxypropylcellulose) (HPC) 96 % of control and 105 % of control | dose: 3.12 mg/kg/injection, schedule: Q04DX003 (ip), vehicle: Klucel (hydroxypropylcellulose) (HPC) 106 % of control | dose: 5.0 mg/kg/injection, schedule: Q01DX001 (ip), vehicle: saline 104 % of control | dose: 6.25 mg/kg/injection, schedule: Q01DX009 (ip), vehicle: Klucel (hydroxypropylcellulose) (HPC) 103 % of control and 110 % of control | dose: 6.25 mg/kg/injection, schedule: Q04DX003 (ip), vehicle: Klucel (hydroxypropylcellulose) (HPC) 103 % of control | dose: 10.0 mg/kg/injection, schedule: Q01DX001 (ip), vehicle: saline 104 % of control | dose: 12.5 mg/kg/injection, schedule: Q01DX009 (ip), vehicle: Klucel (hydroxypropylcellulose) (HPC) 100 % of control and 105 % of control | dose: 12.5 mg/kg/injection, schedule: Q04DX003 (ip), vehicle: Klucel (hydroxypropylcellulose) (HPC) 111 % of control | dose: 20.0 mg/kg/injection, schedule: Q01DX001 (ip), vehicle: saline 116 % of control | dose: 25.0 mg/kg/injection, schedule: Q01DX009 (ip), vehicle: Klucel (hydroxypropylcellulose) (HPC) 93 % of control and 97 % of control | dose: 25.0 mg/kg/injection, schedule: Q04DX003 (ip), vehicle: Klucel (hydroxypropylcellulose) (HPC) 103 % of control | dose: 40.0 mg/kg/injection, schedule: Q01DX001 (ip), vehicle: saline 104 % of control | dose: 80.0 mg/kg/injection, schedule: Q01DX001 (ip), vehicle: saline 110 % of control

CN(C)c1ccc(/C=N\NC(=O)c2ccco2)cc1
inactive: dose: 200.0 mg/kg/injection, schedule: Q01DX001 (ip), vehicle: other 93 % of control | dose: 400.0 mg/kg/injection, schedule: Q01DX001 (ip), vehicle: other 90 % of control

Cc1ccc(NC(=S)N(C)C)cc1
inactive: [8] 104 % of control | [9] 108 % of control | [10] 108 % of control

NC(=S)Nc1cccc(O)c1
inactive: dose: 100.0 mg/kg/injection, schedule: Q01DX009 (ip), vehicle: gum acacia 96 % of control | dose: 100.0 mg/kg/injection, schedule: Q04DX003 (ip), vehicle: gum acacia 92 % of control | dose: 200.0 mg/kg/injection, schedule: Q01DX009 (ip), vehicle: gum acacia 87 % of control | dose: 200.0 mg/kg/injection, schedule: Q04DX003 (ip), vehicle: gum acacia 92 % of control | dose: 400.0 mg/kg/injection, schedule: Q01DX009 (ip), vehicle: gum acacia 87 % of control | dose: 400.0 mg/kg/injection, schedule: Q04DX003 (ip), vehicle: gum acacia 92 % of control

COc1ccc(C2=CC(O)CC(c3ccccc3)C2c2ccccc2)cc1 (configuration not stated)
inactive: [13] 105 % of control | [14] 103 % of control | [15] 91 % of control

NC(=O)CCP(=O)(CCC(N)=O)CCC(N)=O
inactive: dose: 50.0 mg/kg/injection, schedule: Q01DX009 (ip), vehicle: saline 94 % of control | dose: 50.0 mg/kg/injection, schedule: Q04DX003 (ip), vehicle: saline 101 % of control | dose: 100.0 mg/kg/injection, schedule: Q01DX009 (ip), vehicle: saline 94 % of control | dose: 100.0 mg/kg/injection, schedule: Q04DX003 (ip), vehicle: saline 103 % of control | dose: 200.0 mg/kg/injection, schedule: Q01DX009 (ip), vehicle: saline 90 % of control | dose: 200.0 mg/kg/injection, schedule: Q04DX003 (ip), vehicle: saline 95 % of control | dose: 400.0 mg/kg/injection, schedule: Q04DX003 (ip), vehicle: saline 98 % of control

C1=C(c2ccccc2)N2CCN=C2S1
inactive: [16] 100 % of control

CNC(=O)Nc1ccc(C(=O)O)cc1
inactive: [5] 102 % of control | [6] 95 % of control | [7] 95 % of control

O=C1C(=O)c2ccccc2C(O)=C1Nc1ccc(Cl)cc1
inactive: [1] 94 % of control | [2] 93 % of control | [3] 93 % of control

N#CC1(N(O)C(=O)Nc2ccccc2Cl)CCCCC1
inactive: [17] 100 % of control | [18] 96 % of control | [19] 91 % of control

COc1ccc(C(=O)CC(=O)c2ccc(OC)cc2)cc1
inactive: [16] 92 % of control | [17] 92 % of control | [18] 108 % of control | [19] 94 % of control

NC(=NC(=O)c1ccccc1)N[N+](=O)[O-]
inactive: dose: 100.0 mg/kg/injection, schedule: Q04DX002 (ip), vehicle: gum acacia 104 % of control | dose: 200.0 mg/kg/injection, schedule: Q04DX002 (ip), vehicle: gum acacia 107 % of control | dose: 400.0 mg/kg/injection, schedule: Q04DX002 (ip), vehicle: gum acacia 104 % of control

Reference: PubChem BioAssay AID248 (DTP/NCI, 2004)
